From patent US4414388A, “1-Oxo-1H-thiazolo[3,2-a]pyrimidine-2-carboxamides” (Pfizer Inc., priority 1981, dated 1983)
Entries after “also recorded” stand apart in the source; their conditions may differ. Counter-ions that a name gives are not always drawn.

What was measured:
IgE = assay: passive cutaneous anaphylaxis (PCA) test, oral, IgE (reaginic antiserum) site; type: in vivo, rat; settings: Table I; for inhibition in vivo at 30 mg/kg: Rattus norvegicus, read-out: Oral Activity (% of Protection) of Amides in the PCA Test, IgE 30 mg./kg.
Experimental: (§1) The antiallergy property of the compounds of this invention is evaluated by the passive cutaneous anaphylaxis (PCA) test (Ovary, J. Immun., 81, 355, 1958). In the PCA test, normal animals are injected intradermally (i.d.) with antibodies contained in serum obtained from actively sensitized animals. The animals are then challenged intravenously with antigen mixed with a dye such as Evans' Blue. The increased capillary permeability caused by the antigen-antibody reaction causes the dye to leak from the site of the antibody injection. The test animals are then asphyxiated and the intensity of the reaction determined by measuring the diameter and intensity of the blue coloration on the inner surface of the animals' skin.
(§2) The PCA test is a measure of the anti-allergic (especially anti-asthmatic) activity of a compound. Compounds which inhibit a positive PCA test induced by the rat immunochemical counterpart of human immunoglobulin E (IgE), or reagin, are considered to have anti-allergic activity (C. Mota, Ann. N.Y. Acad. Sci., 103, 264 1963). (Reagin is primarily immunoglobulin E [IgE] and is the principal immunoglobulin responsible for allergic asthma, anaphylaxis, hay fever, food sensitivities and certain manifestations of drug sensitivities, although recent evidence ascribes to the IgG class of antibodies a significant role in the mediation of allergic diseases). Such compounds when administered to a sensitized subject, human or animal, prior to the time when the subject comes into contact with antigens or substances to which it is allergic, will prevent the allergic reaction which would otherwise occur. They, therefore, provide a method for the prophylactic treatment of allergy or anaphylactic reactions of a reagin mediated nature.
(§3) To put it another way, such compounds block the release of mediators resulting from the antigen-antibody (allergic) reaction as illustrated in the PCA test using rat homocytotropic antibody--a known correlate of human reaginic antibody. Inhibition of reaginic antigen-antibody reactions in rats, the test animal of the PCA test, is regarded as representative of inhibition of human reaginic antigen-antibody reactions which occur during allergic episodes.
(§4) The ability of agents to interfere with PCA reactions is measured in male Charles River Wistar rats, 170-210 g. Reaginic antiserum, rich in IgE antibodies, is prepared according to Petillo et al., Int. Arch. Allergy, 44, 309 (1973). Hyperimmune antiserum rich in IgG antibodies to hen egg albumin is prepared according to Orange et al., J. Exptl. Med., 127, 767 (1968). Forty-eight hours prior to antigen challenge, the reaginic antiserum is injected intradermally (i.d.) into the shaved skin of a normal rat's back; 5 hours before challenge the hyperimmune antisera is similarly injected. At a third site 60 mcg. histamine dihydrochloride and 0.5 mcg. serotonin creatinine sulfate are injected i.d. just prior to antigen challenge as a check for antihistaminic, antiserotonin and unspecific types of blockage; the compounds of the instant invention or saline are then administered i.v. and immediately followed by the challenge of 5 mg. egg albumen and 2.5 mg. Evans' Blue dye in saline. In the case of oral administration Evans' Blue dye and egg albumin are given 5 minutes after administration of the drug. Thirty minutes later the animals are asphyxiated using chloroform and the skin of the back removed and reversed for observation. A score is assigned each injection site equal to the product of the diameter of the site in mm. and a grade of 0.1, 0.5, 1, 2, 3 or 4 proportional to intensity of dye coloration. The scores for a given injection site are summed for each group of five animals and compared to the saline treated controls. The difference is expressed as percent blockage due to the compound employed. […]

IgG = assay: passive cutaneous anaphylaxis (PCA) test, oral, IgG (hyperimmune antiserum) site; type: in vivo, rat; settings: Table I; for inhibition in vivo at 30 mg/kg: Rattus norvegicus, read-out: Oral Activity (% of Protection) of Amides in the PCA Test, IgG 30 mg./kg.
Experimental: as §1, §2, §3, §4

[1] = tested on: dextran induced release of histamine; assay: dextran induced release of histamine into the rat peritoneal cavity; type: in vivo; settings: ip
Source text: Compound III inhibits dextran induced release of histamine into the rat peritoneal cavity.

mediators of anaphylaxis = settings: cited from earlier work
[2] = water solubility and hygroscopicity of the sodium salt; type: physicochemical; settings: sodium salt (trihydrate)
gastric ulcers = settings: animals, including humans; cited from earlier work
[3] = plasma concentration / oral absorption in dogs; type: in vivo, dog; settings: dog; oral dosing of III
Experimental: (§5) This is supported by the observations of plasma concentrations of 3 to 7 μg/ml one hour after oral administration of III, 50 to 300 mg/kg.

[4] = plasma concentration / oral absorption in rats; type: in vivo, rat; settings: rat; oral dosing of III
Experimental: as §5

allergy and ulcer = assay: antiallergy and antiulcer activity, general statement; settings: in vivo
Experimental: as §1
The antiulcer activity of the compounds of the present invention is evaluated by the so-called cold-restraint stressed rat assay. Alternatively, the antiulcer activity is determined in a newly established ethanol-induced rat ulcer assay described below.

For `CC1CCc2c(sc3ncc(C(=O)Nc4nnn[nH]4)c(=O)n23)C1` (centres unmarked) [Amide I, R1R2 = CH2 CH(CH3)CH2 CH2, N-(5-tetrazolyl)-1-oxo-1H-7-methylcyclohexenothiazolo[3,2-a]pyrimidine-2-carboxamide], the inhibition in vivo at 30 mg/kg (IgE) was 44% and the inhibition in vivo at 30 mg/kg (IgG) was 33%.
In the case of `CC(C)(C)c1csc2ncc(C(=O)Nc3nnn[nH]3)c(=O)n12` [Amide I, R1 = H, R2 = C(CH3)3, N-(5-tetrazolyl)-1-oxo-1H-7-(2-methyl-2-propyl)thiazolo[3,2-a]pyrimidine-2-carboxamide], the “Oral Activity (% of Protection) of Amides in the PCA Test, IgE 10 mg./kg.” value (“Oral Activity (% of Protection) … IgE 10 mg./kg.” below) (IgE) is reported as 37% and the “Oral Activity (% of Protection) of Amides in the PCA Test, IgG 10 mg./kg.” value (from here on “Oral Activity (% of Protection) … IgG 10 mg./kg.”) (IgG) is reported as 20%.
`O=C(Nc1nnn[nH]1)c1cnc2sc3c(n2c1=O)CCC(c1ccccc1)C3` (centres unmarked) [Amide I, R1R2 = CH2 CH(C5 H6)CH2 CH2, N-(5-tetrazolyl)-1-oxo-1H-7-phenylcyclohexenothiazolo[3,2-a]pyrimidine-2-carboxamide] gave an inhibition in vivo at 30 mg/kg (IgE) of 4% and an inhibition in vivo at 30 mg/kg (IgG) of 7%.
In the case of `O=C(O)c1cc(=O)c2c(OCC(O)COc3cccc4oc(C(=O)O)cc(=O)c34)cccc2o1` [Intal, 1,3-bis(2-carboxycromon-5-yloxy)-2-hydroxy-propane], the ED50 [1] is given as 0.014 mg/kg, the bronchodilator activity (mediators of anaphylaxis; in vivo) is given as “not a bronchodilator” and the “release of mediators of anaphylaxis” value (mediators of anaphylaxis; in vivo) is given as “inhibition of release of mediators of anaphylaxis”. The “oral activity/efficacy of Intal” value (mediators of anaphylaxis; oral route) was “lacks efficacy by the oral route; also recorded: not active by the oral route; also recorded: lack of oral efficacy”.
In the case of `CCc1sc2ncc(C(=O)Nc3nnn[nH]3)c(=O)n2c1CC` [Amide I, R1 = C2 H5, R2 = C2 H5, N-(5-tetrazolyl)-1-oxo-1H-6,7-diethylthiazolo[3,2-a]pyrimidine-2-carboxamide], the “Oral Activity (% of Protection) … IgE 10 mg./kg.” value (IgE) is reported as 62% and the “Oral Activity (% of Protection) … IgG 10 mg./kg.” value (IgG) is reported as 49%.
For `O=C(Nc1nnn[nH]1)c1cnc2sc3c(n2c1=O)CCCCC3` [Amide I, R1R2 = (CH2)5, N-(5-tetrazolyl)-1-oxo-1H-cycloheptenothiazolo[3,2-a]pyrimidine-2-carboxamide], the “Oral Activity (% of Protection) … IgE 10 mg./kg.” value (IgE) was 25% and the “Oral Activity (% of Protection) … IgG 10 mg./kg.” value (IgG) was 38%.
In the case of `CCc1c(C)sc2ncc(C(=O)Nc3nnn[nH]3)c(=O)n12` [Amide I, R1 = CH3, R2 = C2 H5, N-(5-tetrazolyl)-1-oxo-1H-6-methyl-7-ethylthiazolo[3,2-a]pyrimidine-2-carboxamide], the “Oral Activity (% of Protection) … IgE 10 mg./kg.” value (IgE) is reported as 75% and the “Oral Activity (% of Protection) … IgG 10 mg./kg.” value (IgG) is reported as 57%.
In the case of `CCC(C)c1csc2ncc(C(=O)Nc3nnn[nH]3)c(=O)n12` (centres unmarked) [N-(5-Tetrazolyl)-1-oxo-1H-7-(2-butyl)thiazolo[3,2-a]pyrimidine-2-carboxamide], the inhibition in vivo at 30 mg/kg (IgE) is reported as 6% and the inhibition in vivo at 30 mg/kg (IgG) is reported as 6%.
For `O=C(Nc1nnn[nH]1)c1cnc2sc3c(n2c1=O)CCCC3` [sodium salt (trihydrate), sodium N-(5-tetrazolyl)-1-oxo-1H-cyclohexenothiazolo[3,2-a]pyrimidine-2-carboxamide trihydrate], the hygroscopicity [2] was “non-hygroscopic” and the water solubility [2] was “good water solubility”.
For `CC1(C)[C@@H](OC(=O)CCC(=O)O)CC[C@]2(C)[C@H]3C(=O)C=C4[C@@H]5C[C@@](C)(C(=O)O)CC[C@]5(C)CC[C@@]4(C)[C@]3(C)CC[C@@H]12` [carbenoxolone sodium, disodium salt of the hemisuccinate of glycyrrhetinic acid], the “effect on gastric ulcers” value (gastric ulcers) is given as “prevent formation of and to accelerate healing of gastric ulcers”.
Work on `CC1(C)CCc2c(sc3ncc(C(=O)Nc4nnn[nH]4)c(=O)n23)C1` [Amide I, R1R2 = CH2 C(CH3)2 CH2 CH2, N-(5-Tetrazolyl)-1-oxo-1H-7,7-dimethylcyclohexenothiazolo[3,2-a]pyrimidine-2-carboxamide] yielded an inhibition in vivo at 30 mg/kg (IgE) of 38% and an inhibition in vivo at 30 mg/kg (IgG) of 27%.
With `O=C(O)c1cnc2sc3c(n2c1=O)CCCC3` [Acid II, R1R2 = (CH2)4, 1-oxo-1H-cyclohexenothiazolo[3,2-a]pyrimidine-2-carboxylic acid] the “plasma levels of the carboxylic acid metabolite compared with III, dog” value [3] was “comparable to those of III”, the “plasma levels of the carboxylic acid metabolite compared with III, rat” value [4] was “comparable to those of III” and the “activity of metabolite, in words” value (allergy and ulcer) was “good activity”.
For `CCc1csc2ncc(C(=O)Nc3nnn[nH]3)c(=O)n12` [Amide I, R1 = H, R2 = C2 H5, N-(5-tetrazolyl)-1-oxo-1H-7-ethylthiazolo[3,2-a]pyrimidine-2-carboxamide], the “Oral Activity (% of Protection) … IgE 10 mg./kg.” value (IgE) was 70% and the “Oral Activity (% of Protection) … IgG 10 mg./kg.” value (IgG) was 44%.
With `O=C(Nc1nnn[nH]1)c1cnc2sc3c(n2c1=O)CCC3` [Amide I, R1R2 = (CH2)3, N-(5-tetrazolyl)-1-oxo-1H-cyclopentenothiazolo[3,2-a]pyrimidine-2-carboxamide] the “Oral Activity (% of Protection) of Amides in the PCA Test, IgE 3 mg./kg.” value (IgE; 3 mg./kg.) was 46% and the “Oral Activity (% of Protection) of Amides in the PCA Test, IgG 3 mg./kg.” value (IgG; 3 mg./kg.) was 43%.
With `O=C(Nc1nnn[nH]1)c1cnc2sc3c(n2c1=O)CCCCCC3` [Amide I, R1R2 = (CH2)6, N-(5-Tetrazolyl)-1-oxo-1H-cyclooctenothiazolo[3,2-a]pyrimidine-2-carboxamide] the “Oral Activity (% of Protection) … IgE 10 mg./kg.” value (IgE) was 94% and the “Oral Activity (% of Protection) … IgG 10 mg./kg.” value (IgG) was 57%.
In the case of `CC(C)c1csc2ncc(C(=O)Nc3nnn[nH]3)c(=O)n12` [Amide I, R1 = H, R2 = CH(CH3)2, N-(5-tetrazolyl)-1-oxo-1H-7-isopropylthiazolo[3,2-a]pyrimidine-2-carboxamide], the “Oral Activity (% of Protection) … IgE 10 mg./kg.” value (IgE) is reported as 72% and the “Oral Activity (% of Protection) … IgG 10 mg./kg.” value (IgG) is reported as 53%.
In the case of `CN/C(=N/CCSCc1nc[nH]c1C)NC#N` [cimetidine], the “effect on gastric ulcers” value (gastric ulcers) is listed as “alleviates ulcers by reducing gastric acid secretion”.
